According to patent US20180353462A1, “[…] AGENTS […] FLAVONOID DERIVATIVES TARGETING KINASES, SIRTUINS AND ONCOGENIC AGENTS FOR THE TREATMENT OF CANCERS” (priority 2015, published 2018):

Assays:
PIK3CA(1800L) = target: T1, PIK3CA(1800L) (Homo sapiens, UniProt P42336, I800L); experiment: Kinase competition binding assay, PIK3CA(1800L); conditions: Table 1 kinase panel
T1 construct: T7 phage fusion (most assays) or DNA tag for qPCR (HEK-293-made kinases); made in house
Protocol: (§1) Cannabis flavonoids and their analogs were subjected to kinase inhibition assay. The compounds were first screened at a single concentration of 10 μM in the primary assay. […]. To determine the kd or IC50 values, competition binding assays were established, authenticated and executed as described previously. Fabian et al., “A Small Molecule-Kinase Interaction Map For Clinical Kinase Inhibitors.”, Nat Biotechnol, 23(3):329-36, Epub (2005). See also, Karaman et al., “A Quantitative Analysis Of Kinase Inhibitor Selectivity”, Nat. Biotechnol. […] For most assays, kinases were fused to T7 phage strains (Fabian, supra) and for the other assays, kinases were produced in HEK-293 cells after which they were tagged with DNA for quantitative PCR detection. In general, full-length constructs were used for small, single domain kinases, and catalytic domain constructs for large multi-domain kinases. The binding assays utilized streptavidin-coated magnetic beads treated with biotinylated small molecule ligands for 30 minutes at room temperature which generated affinity resins for the kinase assays. The liganded beads were blocked with excess biotin and washed with blocking buffer (SeaBlock (Pierce), 1% BSA, 0.05% Tween 20, 1 mM DTT) to remove unbound ligand and to reduce non-specific phage binding. […] Test compounds were prepared as 40× stocks in 100% DMSO and diluted directly into the assay (Final DMSO concentration=2.5%). All reactions were performed in polypropylene 384-well plates in a final volume of 0.04 ml. […] The beads were then re-suspended in elution buffer (1×PBS, 0.05% Tween 20, 0.5 μM non-biotinylated affinity ligand) and incubated at room temperature with shaking for 30 minutes. The kinase concentration in the eluates was measured by quantitative PCR. An illustration of the kinase interaction process is presented below. Kd/IC50 values were determined using a standard dose response curve using the hill equation. Curves were fitted using a non-linear least square fit with the Levenberg-Marquardt algorithm.
(§2) The compound(s) were screened at 10 μM and results for primary screen binding interactions are reported as ‘% Ctrl’, where lower numbers indicate stronger hits in the matrix.

PIP5K1A = target: T2, PIP5K1A (Homo sapiens, UniProt Q99755); experiment: Kinase competition binding assay, PIP5K1A; conditions: Table 1 kinase panel
T2 construct: T7 phage fusion (most assays) or DNA tag for qPCR (HEK-293-made kinases); made in house
Protocol: as §1, §2

EFGR(L858R, T7790M) = experiment: Kinase competition binding assay, EFGR(L858R, T7790M); conditions: Table 1 kinase panel
Protocol: as §1, §2

MELK = target: T3, MELK (Homo sapiens, UniProt Q14680); experiment: Kinase competition binding assay, MELK; conditions: Table 1 kinase panel
T3 construct: made in house
Protocol: as §1, §2

KIT(L576P) = target: T4, KIT(L576P) (Homo sapiens, UniProt P10721, L576P); experiment: Kinase competition binding assay, KIT(L576P); conditions: Table 1 kinase panel
T4 construct: made in house
Protocol: as §1, §2

Aurora A = target: T5, Aurora A (Homo sapiens, UniProt O14965); experiment: Kinase competition binding assay, Aurora A; conditions: Table 1 kinase panel
T5 construct: made in house
T5 sequence (O14965 1-403): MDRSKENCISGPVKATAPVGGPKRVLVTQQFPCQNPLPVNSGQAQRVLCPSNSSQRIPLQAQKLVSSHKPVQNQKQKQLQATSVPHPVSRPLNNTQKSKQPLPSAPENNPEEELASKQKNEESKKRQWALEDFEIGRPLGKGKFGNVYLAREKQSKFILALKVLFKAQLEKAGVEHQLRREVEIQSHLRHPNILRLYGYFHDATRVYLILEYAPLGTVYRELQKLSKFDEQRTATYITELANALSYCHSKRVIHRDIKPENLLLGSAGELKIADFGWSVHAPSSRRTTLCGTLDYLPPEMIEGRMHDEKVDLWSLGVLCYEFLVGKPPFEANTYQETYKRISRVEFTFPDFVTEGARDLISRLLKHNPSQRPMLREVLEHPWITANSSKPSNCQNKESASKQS
Protocol: as §1, §2

c-Kit(Y823D) = target: T6, c-Kit(Y823D) (Homo sapiens, UniProt P10721, Y823D); experiment: Kinase competition binding assay, c-Kit(Y823D); conditions: Table 1 kinase panel
T6 construct: made in house
Protocol: as §1, §2

FGR = target: T7, FGR (Homo sapiens, UniProt P09769); experiment: Kinase competition binding assay, FGR; conditions: Table 1 kinase panel
T7 construct: made in house
Protocol: as §1, §2

NCI-H69 (Small lung) = experiment: WST-1 anticancer cell proliferation assay, NCI-H69; assay type: cell-based; conditions: 72 hours
Protocol: (§3) Bioactivity of the above-described compounds has been verified by an anticancer cell proliferation assay using the WST-1 (4-[3-(4-iodophenyl)-2-(4-nitrophenyl)-2H-5-tetrazolio]-1, 3-benzene disulfonate) colorimetric assay by Roche Life Sciences®. Anticancer activity was tested against several standard cancer cell lines including brain, breast, Kaposi sarcoma, leukemia, lung, melanoma, tenosynovial giant cell tumor, ovarian, pancreatic, colon and prostate cancer. Cells were trypsinized and plated into 96 well plates in 50 μl of media and incubated overnight. The next day approximately 18 hours after plating, 50 μl of media containing the required flavonoid-based pharmaceutical composition was added per well. Cells were plated at a density so that 72 hours post drug addition, the cells will be in log phase (500)-2000 cells/well). The compounds and extracts were solubilized in Dimethyl sulfoxide (DMSO). The cells are allowed to proliferate for 72 hours 37° C. in humidified atmosphere of 5% CO2. The experiment is terminated using WST-1 (Roche®) 10 μl per well and absorbance is read at 450 nm %690 nm. The effect of drugs on growth is assessed as percent of cell viability. The IC50 values were determined from the extract dose versus control growth curves using Graphpad Prism® software. All experiments were carried out in duplicate and the mean results determined.

CFPAC-1 (Pancreatic) = experiment: WST-1 anticancer cell proliferation assay, CFPAC-1; assay type: cell-based, human; conditions: 72 hours
Protocol: as §3

SIRT-5 = target: T8, SIRT-5 (Homo sapiens, UniProt Q9NXA8); experiment: Inhibition of sirtuins, SIRT-5; assay type: biochemical; conditions: Table 3 SIRT
T8 sequence (Q9NXA8 37-310): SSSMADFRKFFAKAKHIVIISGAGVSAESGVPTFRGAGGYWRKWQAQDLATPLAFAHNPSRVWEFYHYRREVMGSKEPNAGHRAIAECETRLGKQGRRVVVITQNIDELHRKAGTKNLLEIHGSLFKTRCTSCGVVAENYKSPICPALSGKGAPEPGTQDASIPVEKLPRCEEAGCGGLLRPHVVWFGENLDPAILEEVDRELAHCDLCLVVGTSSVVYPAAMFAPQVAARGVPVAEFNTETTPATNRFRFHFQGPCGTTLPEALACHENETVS
Text: Inhibition of Sirtuins, Matrix Metalloproteinase, Bromodomains was Also Confirmed Using Standard Protocols and the Results are Present in Table 2.

BIKE = target: T9, BIKE (Homo sapiens, UniProt Q9NSY1); experiment: Kinase competition binding assay, BIKE; conditions: Table 1 kinase panel
T9 construct: made in house
Protocol: as §1, §2

PDGFRa(T674I) = target: T10, PDGFRa(T674I) (Homo sapiens, UniProt P16234, T674I); experiment: Kinase competition binding assay, PDGFRa(T674I); conditions: Table 1 kinase panel
T10 construct: catalytic domain constructs for large multi-domain kinases; T7 phage fusion (most assays) or DNA tag for qPCR (HEK-293-made kinases); made in house
Protocol: as §1, §2

T9 sequence (Q9NSY1 whole entry): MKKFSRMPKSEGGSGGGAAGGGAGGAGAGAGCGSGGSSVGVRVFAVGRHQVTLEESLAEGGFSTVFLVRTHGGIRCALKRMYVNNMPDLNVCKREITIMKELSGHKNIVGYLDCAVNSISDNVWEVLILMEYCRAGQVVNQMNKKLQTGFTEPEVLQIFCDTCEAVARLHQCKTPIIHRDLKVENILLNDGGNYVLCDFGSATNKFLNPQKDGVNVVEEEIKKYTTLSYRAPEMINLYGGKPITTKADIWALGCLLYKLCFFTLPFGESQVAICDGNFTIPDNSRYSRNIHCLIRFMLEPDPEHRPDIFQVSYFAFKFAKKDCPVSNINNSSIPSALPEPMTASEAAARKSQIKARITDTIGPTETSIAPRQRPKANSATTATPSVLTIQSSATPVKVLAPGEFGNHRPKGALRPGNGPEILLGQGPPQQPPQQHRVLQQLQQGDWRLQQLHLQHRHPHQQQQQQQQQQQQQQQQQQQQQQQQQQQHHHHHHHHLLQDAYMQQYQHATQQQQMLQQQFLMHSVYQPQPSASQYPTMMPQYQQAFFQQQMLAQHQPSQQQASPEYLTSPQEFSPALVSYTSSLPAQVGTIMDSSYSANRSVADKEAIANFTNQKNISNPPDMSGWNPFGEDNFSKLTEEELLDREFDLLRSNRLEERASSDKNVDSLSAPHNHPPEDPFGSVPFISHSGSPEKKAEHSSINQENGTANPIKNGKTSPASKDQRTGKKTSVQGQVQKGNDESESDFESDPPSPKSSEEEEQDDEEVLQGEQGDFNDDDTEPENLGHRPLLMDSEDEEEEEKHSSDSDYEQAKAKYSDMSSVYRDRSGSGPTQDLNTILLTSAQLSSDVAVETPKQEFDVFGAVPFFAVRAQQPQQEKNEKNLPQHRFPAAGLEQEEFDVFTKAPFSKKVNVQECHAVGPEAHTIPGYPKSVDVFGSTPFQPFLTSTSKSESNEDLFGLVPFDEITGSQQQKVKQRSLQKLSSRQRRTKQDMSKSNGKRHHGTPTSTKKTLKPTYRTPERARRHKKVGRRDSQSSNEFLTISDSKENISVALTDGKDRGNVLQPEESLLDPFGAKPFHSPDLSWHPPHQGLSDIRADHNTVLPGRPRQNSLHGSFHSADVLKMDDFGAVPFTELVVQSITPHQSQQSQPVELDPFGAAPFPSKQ
T3 sequence (Q14680 whole entry): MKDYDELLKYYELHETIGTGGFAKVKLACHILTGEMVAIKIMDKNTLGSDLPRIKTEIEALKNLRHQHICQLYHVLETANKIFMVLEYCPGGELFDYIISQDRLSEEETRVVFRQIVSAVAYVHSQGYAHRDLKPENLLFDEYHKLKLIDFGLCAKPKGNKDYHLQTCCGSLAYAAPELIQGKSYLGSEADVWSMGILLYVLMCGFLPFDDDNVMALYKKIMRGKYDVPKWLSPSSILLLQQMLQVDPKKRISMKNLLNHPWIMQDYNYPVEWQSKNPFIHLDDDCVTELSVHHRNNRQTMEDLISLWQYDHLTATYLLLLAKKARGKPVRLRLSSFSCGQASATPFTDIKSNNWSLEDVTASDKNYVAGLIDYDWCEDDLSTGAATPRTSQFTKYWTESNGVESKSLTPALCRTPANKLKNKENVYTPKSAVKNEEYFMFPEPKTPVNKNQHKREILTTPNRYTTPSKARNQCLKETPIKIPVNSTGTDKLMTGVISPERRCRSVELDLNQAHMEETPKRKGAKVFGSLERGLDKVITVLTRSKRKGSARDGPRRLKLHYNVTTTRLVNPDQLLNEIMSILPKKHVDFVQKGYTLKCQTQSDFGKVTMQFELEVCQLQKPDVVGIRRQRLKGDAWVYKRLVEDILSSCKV
T2 sequence (Q99755 whole entry, the tested form may be a part): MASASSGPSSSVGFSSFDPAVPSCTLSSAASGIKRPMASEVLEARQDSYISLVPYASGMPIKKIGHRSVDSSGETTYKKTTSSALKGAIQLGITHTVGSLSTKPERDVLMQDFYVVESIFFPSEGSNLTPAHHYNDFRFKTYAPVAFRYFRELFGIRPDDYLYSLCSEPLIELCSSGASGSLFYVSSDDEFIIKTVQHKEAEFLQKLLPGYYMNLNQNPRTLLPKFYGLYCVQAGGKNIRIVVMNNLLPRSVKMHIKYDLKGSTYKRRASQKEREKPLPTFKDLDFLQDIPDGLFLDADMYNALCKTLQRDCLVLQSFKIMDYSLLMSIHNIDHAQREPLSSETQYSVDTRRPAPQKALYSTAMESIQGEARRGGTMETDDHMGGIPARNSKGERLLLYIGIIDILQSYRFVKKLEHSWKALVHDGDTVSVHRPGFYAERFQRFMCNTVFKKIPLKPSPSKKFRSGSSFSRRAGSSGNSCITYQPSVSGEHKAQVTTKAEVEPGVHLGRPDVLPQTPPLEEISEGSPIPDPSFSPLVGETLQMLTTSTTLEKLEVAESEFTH
T7 sequence (P09769 whole entry): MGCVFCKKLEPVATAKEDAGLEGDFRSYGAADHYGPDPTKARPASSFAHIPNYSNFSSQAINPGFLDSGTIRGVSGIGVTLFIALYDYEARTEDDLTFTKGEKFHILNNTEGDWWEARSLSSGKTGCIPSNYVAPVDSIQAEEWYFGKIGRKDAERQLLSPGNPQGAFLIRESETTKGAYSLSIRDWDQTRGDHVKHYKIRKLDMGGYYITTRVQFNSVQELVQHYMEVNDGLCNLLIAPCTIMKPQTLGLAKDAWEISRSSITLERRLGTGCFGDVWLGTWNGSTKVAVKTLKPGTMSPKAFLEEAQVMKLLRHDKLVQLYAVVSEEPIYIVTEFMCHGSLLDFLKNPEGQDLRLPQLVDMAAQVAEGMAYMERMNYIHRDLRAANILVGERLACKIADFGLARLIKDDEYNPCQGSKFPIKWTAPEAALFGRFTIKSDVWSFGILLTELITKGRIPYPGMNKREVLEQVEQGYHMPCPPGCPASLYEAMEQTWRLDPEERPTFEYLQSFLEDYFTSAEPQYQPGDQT
T1 sequence (P42336 whole entry I800L, the tested form may be a part): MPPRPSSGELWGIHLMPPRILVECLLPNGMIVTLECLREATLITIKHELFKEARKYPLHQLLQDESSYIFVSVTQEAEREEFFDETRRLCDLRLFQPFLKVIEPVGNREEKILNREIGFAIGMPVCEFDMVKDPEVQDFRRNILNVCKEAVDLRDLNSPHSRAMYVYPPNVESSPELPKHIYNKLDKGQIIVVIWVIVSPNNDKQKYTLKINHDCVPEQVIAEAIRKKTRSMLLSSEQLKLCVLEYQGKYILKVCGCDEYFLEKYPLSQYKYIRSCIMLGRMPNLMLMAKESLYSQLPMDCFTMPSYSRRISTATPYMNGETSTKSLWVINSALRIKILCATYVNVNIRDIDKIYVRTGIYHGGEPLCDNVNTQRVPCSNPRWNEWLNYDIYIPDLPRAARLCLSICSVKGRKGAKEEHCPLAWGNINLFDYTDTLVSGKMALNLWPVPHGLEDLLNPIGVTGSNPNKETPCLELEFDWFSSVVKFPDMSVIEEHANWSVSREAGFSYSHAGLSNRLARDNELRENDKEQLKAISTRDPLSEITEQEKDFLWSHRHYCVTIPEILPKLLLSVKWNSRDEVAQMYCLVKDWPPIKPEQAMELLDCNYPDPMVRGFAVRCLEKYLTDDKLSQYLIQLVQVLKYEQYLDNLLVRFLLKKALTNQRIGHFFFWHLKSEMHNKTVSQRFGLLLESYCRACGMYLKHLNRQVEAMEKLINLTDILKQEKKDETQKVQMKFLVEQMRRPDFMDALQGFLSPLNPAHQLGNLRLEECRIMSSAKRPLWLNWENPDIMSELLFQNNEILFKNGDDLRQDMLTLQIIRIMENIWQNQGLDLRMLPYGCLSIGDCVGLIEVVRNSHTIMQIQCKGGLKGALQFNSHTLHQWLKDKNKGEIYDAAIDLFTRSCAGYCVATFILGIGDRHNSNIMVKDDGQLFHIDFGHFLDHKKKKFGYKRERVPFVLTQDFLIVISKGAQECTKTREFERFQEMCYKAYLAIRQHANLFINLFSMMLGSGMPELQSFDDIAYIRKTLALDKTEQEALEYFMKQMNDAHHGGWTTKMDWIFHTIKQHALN
T4 sequence (P10721 26-976 L576P): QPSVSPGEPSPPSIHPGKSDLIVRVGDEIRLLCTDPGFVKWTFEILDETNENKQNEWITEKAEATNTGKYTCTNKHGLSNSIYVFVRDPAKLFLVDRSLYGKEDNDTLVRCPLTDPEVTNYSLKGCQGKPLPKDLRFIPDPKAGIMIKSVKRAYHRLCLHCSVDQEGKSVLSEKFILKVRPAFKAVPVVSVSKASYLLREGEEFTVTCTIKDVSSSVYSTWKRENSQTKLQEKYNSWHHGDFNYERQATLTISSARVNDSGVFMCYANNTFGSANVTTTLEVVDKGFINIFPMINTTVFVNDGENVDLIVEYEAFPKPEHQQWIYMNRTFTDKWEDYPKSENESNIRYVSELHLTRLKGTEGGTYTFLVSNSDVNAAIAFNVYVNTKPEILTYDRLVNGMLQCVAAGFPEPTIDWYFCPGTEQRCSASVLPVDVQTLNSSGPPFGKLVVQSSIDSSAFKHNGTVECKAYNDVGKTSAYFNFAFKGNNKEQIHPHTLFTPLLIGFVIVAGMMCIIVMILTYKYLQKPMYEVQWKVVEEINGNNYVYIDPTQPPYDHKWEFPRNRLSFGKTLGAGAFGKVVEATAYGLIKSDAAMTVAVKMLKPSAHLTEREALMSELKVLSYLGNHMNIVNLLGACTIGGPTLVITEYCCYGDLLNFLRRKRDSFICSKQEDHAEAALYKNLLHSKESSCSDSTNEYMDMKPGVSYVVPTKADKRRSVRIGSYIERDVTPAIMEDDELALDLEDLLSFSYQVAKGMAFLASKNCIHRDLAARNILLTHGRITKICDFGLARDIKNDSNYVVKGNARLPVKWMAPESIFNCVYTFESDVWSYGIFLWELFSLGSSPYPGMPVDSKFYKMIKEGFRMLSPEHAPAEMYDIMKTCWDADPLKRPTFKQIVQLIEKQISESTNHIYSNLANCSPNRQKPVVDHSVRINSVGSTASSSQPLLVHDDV
T6 sequence (P10721 26-976 Y823D): as the sequence (P10721 26-976 L576P) above, with P551L, Y798D counted along it

In the case of `COc1cc(-c2cc(=O)c3c(O)c(C/C=C(\C)CCC=C(C)C)c(O)cc3o2)ccc1O` [FBL-03A], the IC50 (PIK3CA(1800L)) is reported as over 20000 nM, the IC50 (PIP5K1A) is reported as over 20000 nM and the IC50 (EFGR(L858R, T7790M)) is reported as over 20000 nM. The IC50 (MELK) was over 20000 nM, the IC50 (KIT(L576P)) was 180 nM and the IC50 (Aurora A) was 730 nM. The IC50 (c-Kit(Y823D)) was over 20000 nM, the IC50 (FGR) was over 20000 nM and the IC50 (NCI-H69 (Small lung)) was 16 µM. The IC50 (CFPAC-1 (Pancreatic)) was 12 µM, the IC50 (SIRT-5) was 523 µM and the IC50 (BIKE) was over 20000 nM.

`COc1cc(-c2cc(=O)c3c(O)c(CC=C(C)C)c(O)cc3o2)ccc1O` [FBL-03B] showed an IC50 (PIP5K1A) of over 10000 nM, an IC50 (PDGFRa(T674I)) of 0.92 nM and an IC50 (EFGR(L858R, T7790M)) of over 1000 nM. It also gave an IC50 (MELK) of 232 nM, an IC50 (KIT(L576P)) of under 1000 nM and an IC50 (Aurora A) of 12 nM. The IC50 (c-Kit(Y823D)) was 244 nM, the IC50 (FGR) was 224 nM and the IC50 (NCI-H69 (Small lung)) was 11 µM. For the same compound, the IC50 (CFPAC-1 (Pancreatic)) was 17 µM, the IC50 (SIRT-5) was 104 µM and the IC50 (BIKE) was over 20000 nM.

`COc1cc(-c2cc(=O)c3c(O)cc(O)c(C/C=C(\C)CCC=C(C)C)c3o2)ccc1O` [FBL-03C] was tested, and the IC50 (PIK3CA(1800L)) was 780 nM, the IC50 (PIP5K1A) was 360 nM and the IC50 (PDGFRa(T674I)) was over 1000 nM. For the same compound, the IC50 (EFGR(L858R, T7790M)) was 680 nM, the IC50 (MELK) was over 1000 nM and the IC50 (KIT(L576P)) was over 1000 nM. It also gave an IC50 (c-Kit(Y823D)) of over 20000 nM, an IC50 (FGR) of over 20000 nM and an IC50 (NCI-H69 (Small lung)) of 18 µM. For the same compound, the IC50 (CFPAC-1 (Pancreatic)) was 12 µM, the IC50 (SIRT-5) was 132 µM and the IC50 (BIKE) was 21 nM.

Compound `COc1ccc(-c2cc(=O)c3c(O)c(C/C=C(\C)CCC=C(C)C)c(O)cc3o2)cc1OC` [FBL-03D] has an IC50 (PIK3CA(1800L)) of over 30000 nM, an IC50 (PIP5K1A) of over 30000 nM and an IC50 (PDGFRa(T674I)) of over 30000 nM. For the same compound, the IC50 (EFGR(L858R, T7790M)) was over 30000 nM, the IC50 (MELK) was over 30000 nM and the IC50 (KIT(L576P)) was over 30000 nM. The IC50 (Aurora A) was over 30000 nM, the IC50 (c-Kit(Y823D)) was over 30000 nM and the IC50 (FGR) was over 30000 nM. It also gave an IC50 (BIKE) of over 30000 nM.

With `COc1cc(-c2cc(=O)c3c(O)cc(O)c(CC=C(C)C)c3o2)ccc1O` [FBL-03G] the IC50 (PIK3CA(1800L)) was over 20000 nM, the IC50 (PIP5K1A) was over 20000 nM and the IC50 (PDGFRa(T674I)) was 2360 nM. The IC50 (EFGR(L858R, T7790M)) was over 1000 nM, the IC50 (MELK) was 105 nM and the IC50 (KIT(L576P)) was under 1000 nM. For the same compound, the IC50 (Aurora A) was 1090 nM, the IC50 (c-Kit(Y823D)) was 84 nM and the IC50 (FGR) was 880 nM. For the same compound, the IC50 (NCI-H69 (Small lung)) was 9.5 µM, the IC50 (CFPAC-1 (Pancreatic)) was 14.3 µM and the IC50 (SIRT-5) was 974 µM. For the same compound, the IC50 (BIKE) was over 20000 nM.
